Literature values in patent publication US9085569B2, “1,2,4-oxadiazol derivatives, process for their preparation and use thereof as intermediates in the preparation of indolic alkaloids” (CONSIGLIO NAZIONALE DELLE RICERCHE, priority 2012, dated 2015).

Test system: HeLa cell line (uterine cervix cancer)
Conditions: background statement

In the case of `N=C(N)NCCCCCNc1noc(Cc2c[nH]c3ccccc23)n1` [phidianidine B], the cytotoxic activity is listed as “high cytotoxic activity”.
